Data from patent US9382222B2, “Benzyl sulfonamide derivatives as RORc modulators” (Genentech, Inc., priority 2012, dated 2016).

Target: T1, RORc ligand binding domain (Homo sapiens, UniProt P51449)
T1 construct: host or cells: E. coli
T1 sequence (P51449 269-508 limits assumed): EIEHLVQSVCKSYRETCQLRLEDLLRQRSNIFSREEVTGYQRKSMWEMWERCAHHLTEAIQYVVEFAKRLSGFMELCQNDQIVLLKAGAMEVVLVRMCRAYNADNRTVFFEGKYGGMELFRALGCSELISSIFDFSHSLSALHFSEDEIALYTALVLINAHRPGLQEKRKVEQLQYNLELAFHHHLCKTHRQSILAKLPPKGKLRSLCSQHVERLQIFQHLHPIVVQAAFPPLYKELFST
Assay: In Vitro RORc Ligand Binding Assay
Settings: displacement of 25-[3H]hydroxycholesterol (6 nM), 0.6 ug/mL RORc receptor, 3 h at 25° C.
Protocol: In Vitro RORc Ligand Binding Assay This assay was used to determine a compound's potency in inhibiting activity of RORc by determining, Kiapp, IC50, or percent inhibition values. […] On day of the assay, 100 uL of 0.05% CHAPS (in deionized H2O) was added to all wells of the GFB Unifilter plate and allowed soak for 1 h. A wash buffer of 50 mM HEPES (pH 7.4), 150 mM NaCl, and 5 mM MgCl2 was prepared to wash the filter plate. To prepare an assay buffer, BSA was added to the wash buffer to reach 0.01% and DTT was added to reach 1 mM. […] The 20× compound stocks were diluted in DMSO with Assay Buffer 4-fold to reach 5× the final test concentration in 25% DMSO (10 uL compound+30 uL Assay Buffer). Solutions were mixed by aspiration several times with a pipette set on 50 uL volume. For the assay, 10 uL of 5× compound stock solutions in 25% DMSO were added to the assay plate in duplicate. For two point screening, 10 mM stock compound solutions were diluted in DMSO to obtain 200 uM (20× the high test concentration) and then diluted 10-fold further to reach 20 uM (20× the low test concentration). The 20× stocks were diluted 4-fold with Assay Buffer (10 uL compound+30 uL Assay Buffer) to reach 5× the test concentrations (50 uM and 5 uM) and 10 uL were added to two assay plates for the duplicate wells. […] Add 20 uL to all wells to reach 6 nM final concentration in the assay. […] Stock receptor solution was diluted in assay buffer to obtain 1.5 ug/mL in Assay Buffer. 20 uL was added to all wells. For No Receptor samples, 20 uL Assay Buffer was substituted for receptor solution. […] Following addition to the wells, the plates were incubated 3 h at 25° C. Using a Packard Filtermate Harvester, the filter plate were washed 4 times following transfer of the incubated samples. Plates were dry-filtered completely (2 h at 50° C. or overnight at room temperature). 50 uL Microscint 0 was added to all wells and read on Topcount protocol Inverted. […] For NSB wells, 1 uM 25-hydroxycholesterol was also present.

Structure (SMILES) | IC50 [nM]
CC(C)CN(c1ccc(F)cc1)S(=O)(=O)c1ccc(OC2CCN(S(C)(=O)=O)CC2)cc1 [Compound 3, N-(4-Fluoro-phenyl)-N-isobutyl-4-(1-methanesulfonyl-piperidin-4-yloxy)-benzenesulfonamide] | 16
CS(=O)(=O)N1CCC(Oc2ccc(S(=O)(=O)N(c3cccc(F)c3)C3CCC3)cc2)CC1 [Compound 4, N-Cyclobutyl-N-(3-fluoro-phenyl)-4-(1-methanesulfonyl-piperidin-4-yloxy)-benzenesulfonamide] | 29
CC(C)CN(c1cccc(Cl)c1)S(=O)(=O)c1ccc(N2CCC(O)CC2)cc1 [Compound 15, N-(3-Chloro-phenyl)-4-(4-hydroxy-piperidin-1-yl)-N-isobutyl-benzenesulfonamide] | 771
CC(C)CN(c1ccccc1Cl)S(=O)(=O)c1ccc(N2CCC(O)CC2)cc1 [Compound 16, N-(2-Chloro-phenyl)-4-(4-hydroxy-piperidin-1-yl)-N-isobutyl-benzenesulfonamide] | 1300
CC(=O)N1CCN(c2ccc(S(=O)(=O)N(CC(C)C)c3cccc(Cl)c3)cc2)CC1 [Compound 17, 4-(4-Acetyl-piperazin-1-yl)-N-(3-chloro-phenyl)-N-isobutyl-benzenesulfonamide] | 138
CC(C)CN(c1cccc(Cl)c1)S(=O)(=O)c1ccc(N2CCN(S(=O)(=O)N(C)C)CC2)cc1 [Compound 19, 4-{4-[(3-Chloro-phenyl)-isobutyl-sulfamoyl]-phenyl}-piperazine-1-sulfonic acid dimethylamide] | 62
CC(C)CN(c1ccccc1Cl)S(=O)(=O)c1ccc(N2CCN(S(=O)(=O)N(C)C)CC2)cc1 [Compound 20, 4-{4-[(2-Chloro-phenyl)-isobutyl-sulfamoyl]-phenyl}-piperazine-1-sulfonic acid dimethylamide] | 81
CC(=O)N1CCN(c2ccc(S(=O)(=O)N(CC(C)C)c3ccccc3Cl)cc2)CC1 [Compound 21, 4-(4-Acetyl-piperazin-1-yl)-N-(2-chloro-phenyl)-N-isobutyl-benzenesulfonamide] | 99

The remaining lines, values ahead:

IC50 [nM] | Structure (SMILES)
8 | CC(C)CN(Cc1ccc(F)cc1)S(=O)(=O)c1ccc(NC2CCN(S(C)(=O)=O)CC2)cc1 [Compound 2, N-(4-Fluoro-benzyl)-N-isobutyl-4-(1-methanesulfonyl-piperidin-4-ylamino)-benzenesulfonamide]
13 | CC(C)CN(c1ccccc1C(F)(F)F)S(=O)(=O)c1ccc(NC(=O)C2CCN(S(C)(=O)=O)CC2)cc1 [Compound 11, 1-Methanesulfonyl-piperidine-4-carboxylic acid {4-[isobutyl-(2-trifluoromethyl-phenyl)-sulfamoyl]-phenyl}-amide]
6100 | CC(C)CN(c1ccc(F)cc1)S(=O)(=O)c1ccc(C(=O)NC2CCN(S(C)(=O)=O)CC2)cc1 [Compound 12, 4-[(4-Fluoro-phenyl)-isobutyl-sulfamoyl]-N-(1-methanesulfonyl-piperidin-4-yl)-benzamide]
126 | CC(C)CN(c1cccc(Cl)c1)S(=O)(=O)c1ccc(N2CCN(S(C)(=O)=O)CC2)cc1 [Compound 18, N-(3-Chloro-phenyl)-N-isobutyl-4-(4-methanesulfonyl-piperazin-1-yl)-benzenesulfonamide]
87 | CC(C)CN(c1ccccc1Cl)S(=O)(=O)c1ccc(N2CCN(S(C)(=O)=O)CC2)cc1 [Compound 22, N-(2-Chloro-phenyl)-N-isobutyl-4-(4-methanesulfonyl-piperazin-1-yl)-benzenesulfonamide]
169 | CC(C)CN(c1cccc(Cl)c1)S(=O)(=O)c1ccc(N2CCC(NS(C)(=O)=O)CC2)cc1 [Compound 23, N-(3-Chloro-phenyl)-N-isobutyl-4-(4-methanesulfonylamino-piperidin-1-yl)-benzenesulfonamide]
128 | CC(C)CN(c1ccccc1Cl)S(=O)(=O)c1ccc(N2CCC(NS(C)(=O)=O)CC2)cc1 [Compound 24, N-(2-Chloro-phenyl)-N-isobutyl-4-(4-methanesulfonylamino-piperidin-1-yl)-benzenesulfonamide]
